Assays:
PKC = PKC activity assay (ELISA kit) in cytosol of PMA stimulated neutrophils; type: cell-based, human; details: for PKC activity (percentage of stimulated PMA control): 30 min incubation, PMA 0.15 μmol/L 3 min, mean ± SEM, n = 8
Description: PKC activity in the cytosol was detected by the modified method of Varga et al.. Isolated human neutrophils (5 × 10^5/mL) were incubated 30 min with HHC (1, 10, and 100 μmol/L) or HHDC (1, 10, and 100 μmol/L) at 37°C. Neutrophils were then stimulated with PMA (0.15 μmol/L, final concentration) at 37°C for 3 min. The reaction was stopped by addition of 10 vol of ice-cold PBS. After centrifugation (500 ×g, 4°C, 10 min) the cells were resuspended in sample buffer (20 mmol/L TRIS-HCl, 5 mmol/L EDTA, 1% Triton, 10% glycerol, and protease inhibitor cocktail), sonicated on ice, and centrifuged (14 000 ×g, 5 min, 4°C). The cytosolic fractions were transferred to a prechilled 1.5 mL microcentrifuge tube and stored at –70°C. Protein content of cytosol fraction was measured using Bradford Dye Reagent Detection Kit (Bio-Rad, USA). PKC activity was measured with a Nonradioactive Protein Kinase Assay kit (Assay Designs, Ann Arbor, MI, USA), which is based on a solid-phase enzyme-linked immunoabsorbent assay (ELISA), utilising a specific synthetic peptide as substrate for PKC and a polyclonal antibody recognizing the phosphorylated form of the substrate. The assay is developed with tetramethylbenzidine substrate and a colour develops in proportion to PKC phosphotransferase activity. The colour development was stopped with acid stop solution and the intensity of the colour was measured in a microplate reader at 450 nm. The data were expressed as relative kinase activity per 1 mg of protein.

[1] = system: intracellular ROS production in PMA stimulated human neutrophils; assay: Intracellular chemiluminescence (luminol with superoxide dismutase and catalase) of PMA stimulated neutrophils; type: cell-based; details: for Effect on intracellular ROS production: 0.01–100 μmol/L, PMA stimulated; for EC50: Homo sapiens, PMA 0.05 μmol/L, 37°C, luminol-enhanced CL integrated over 1800 s, mean ± SEM, read-out: EC50, intracellular chemiluminescence (50% inhibition of control CL)
Description: (§1) The effect of HHC or HHDC (0.01, 0.1, 1, 10, and 100 μmol/L) on extra- and intracellular ROS production was measured in unstimulated and PMA (0.05 μmol/L) stimulated neutrophils (5 × 10^5/sample) by isoluminol-/luminol-enhanced chemiluminescence (CL). Extracellular CL was determined in the system containing isoluminol (5 μmol/L) and HRP (8 U/mL). Intracellular CL was measured with luminol (5 μmol/L) in the presence of the extracellular scavengers superoxide dismutase (100 U/mL) and catalase (2 000 U/mL). […] Data were based on integral values of CL over 1800 s, (RLU × s; RLU: relative light units).

[2] = system: NADPH oxidase subunit p40^phox; assay: Western blot, phosphorylation of NADPH oxidase subunit p40phox (T154) in PMA stimulated neutrophils; type: cell-based, human; details: 10 and 100 μmol/L, PMA 0.15 μmol/L
Description: (§2) Phosphorylation of PKC isoenzymes α, βII, and δ, as well as NADPH oxidase subunit p40^phox, was detected using the method described by Jančinová et al..
(§3) The suspension of isolated neutrophils (100 μL) containing 5 × 10^6 cells was preincubated at 37°C for 60 seconds with different concentrations of HHC or HHDC (10, 100 μmol/L) prior to addition of PMA (0.15 μmol/L). Incubation with PMA (5 min) was stopped by using a solubilisation buffer (20 mmol/L Tris-HCl, 5 mmol/L EDTA, 1% Triton, 10% glycerol, 10 mmol/L NaF, 1 mmol/L sodium orthovanadate, 208 μmol/L AEBF, 0.17 μmol/L aprotinin, 8 μmol/L bestatin, 2.8 μmol/L E-64, 4 μmol/L leupeptin, and pH 7.4). The suspension was sonicated at 4°C for […] and centrifuged at 14 000 ×g at 4°C for 5 min to remove unbroken cells. […] From the two strips taken, one was detected for PKCα, βII (area between 60 and 100 kD) and the second for detection of β-actin (30–60 kD), which represented the internal control. […]
(§4) NADPH oxidase subunit p40^phox and PKC isoenzyme δ were detected in the same blots after their washing and incubation with 10x diluted stripping buffer (Reblot Plus Mild Solution, Millipore, Temecula, CA, USA) for 15 min and washed overnight in diluent buffer (1% bovine serum albumin in Tris buffered saline). […] Autoradiogram bands were quantified using the Image J programme. […]

human neutrophils = assay: Cytotoxicity by ATP liberation (luciferin-luciferase chemiluminescence); type: cell-based; details: 1, 10, and 100 μmol/L
Description: The cytotoxic effect of HHC and HHDC was evaluated by means of ATP liberation by the luciferin-luciferase chemiluminescence. The neutrophil suspension (30 μL; 30 000 cells/sample) and 20 μL of Tyrode's solution were incubated with 50 μL of HHC or HHDC (1–100 μmol/L) for 15 min at 37°C. Ten microliters of a mixture of luciferin (1.6 μg/sample) and luciferase (45 000 U/sample) was added, and the chemiluminescence was recorded for 60 s. In each experiment, the chemiluminescence of ATP standards (1–500 nmol/L) was measured and the concentrations of ATP in samples were calculated from the calibration curve. The total ATP content was assessed immediately after sonication of neutrophils for 10 s.

PKCδ = molecular target: T1, PKCδ (Homo sapiens, UniProt Q05655); assay: Western blot, phosphorylation of PKCδ (Thr505) in PMA stimulated neutrophils; type: cell-based; details: 10 and 100 μmol/L, PMA 0.15 μmol/L
T1 construct: endogenous in cells; host or cells: isolated human neutrophils
Description: as §2, §3, §4

[3] = Chemiluminescence assay in cell-free system; type: biochemical; details: luminol, hydrogen peroxide; for EC50: HRP, 37°C, CL over 10 minutes, mean ± SEM, read-out: EC50, cell free chemiluminescence (50% inhibition of control CL)
Description: In the cell-free system, luminol, horseradish peroxidase, and hydrogen peroxide were used for chemiluminescence generation. The 200 μL samples consisted of 50 μL aliquots: HRP (2 U/mL), luminol (10 μmol/L), HHC, or HHDC solutions in the concentrations of 1, 10, or 100 μmnol/L. The reaction was initiated by adding hydrogen peroxide at the final concentration of 100 μmol/L. The chemiluminescence responses were measured for 10 minutes at 37°C in a microplate luminometer Immunotech LM-01T (Czech Republic).

[4] = system: extracellular ROS production in PMA stimulated human neutrophils; assay: Extracellular chemiluminescence (isoluminol/HRP) of PMA stimulated neutrophils; type: cell-based; details: for Effect on extracellular ROS production: 0.01–100 μmol/L, PMA stimulated; for EC50: Homo sapiens, PMA 0.05 μmol/L, 37°C, isoluminol-enhanced CL integrated over 1800 s, mean ± SEM, read-out: EC50, extracellular chemiluminescence (50% inhibition of control CL); for EC50 / IC50: Neutrophil; for IC50: PMA stimulated human neutrophils, read-out: IC50 of control extracellular chemiluminescence
Description: as §1

[5] = parameters: method as in PMID 21187835; details: cited from earlier work

T1 sequence (Q05655 whole entry): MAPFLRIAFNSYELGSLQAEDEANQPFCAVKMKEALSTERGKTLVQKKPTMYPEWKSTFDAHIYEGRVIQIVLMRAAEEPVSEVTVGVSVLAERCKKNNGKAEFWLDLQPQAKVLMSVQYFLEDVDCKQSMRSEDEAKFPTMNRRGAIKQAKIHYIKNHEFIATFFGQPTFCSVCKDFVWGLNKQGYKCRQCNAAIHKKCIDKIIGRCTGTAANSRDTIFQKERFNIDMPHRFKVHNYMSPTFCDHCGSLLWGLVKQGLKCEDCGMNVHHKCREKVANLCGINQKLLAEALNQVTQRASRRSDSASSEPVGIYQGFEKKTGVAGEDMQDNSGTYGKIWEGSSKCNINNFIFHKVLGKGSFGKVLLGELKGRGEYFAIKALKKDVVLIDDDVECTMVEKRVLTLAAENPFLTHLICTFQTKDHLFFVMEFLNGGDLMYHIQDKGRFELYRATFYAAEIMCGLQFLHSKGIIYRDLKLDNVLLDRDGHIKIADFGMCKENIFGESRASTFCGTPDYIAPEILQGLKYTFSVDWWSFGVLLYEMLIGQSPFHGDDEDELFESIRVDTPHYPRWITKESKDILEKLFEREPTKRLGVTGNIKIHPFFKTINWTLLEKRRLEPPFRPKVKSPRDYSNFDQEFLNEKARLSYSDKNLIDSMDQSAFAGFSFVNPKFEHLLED

| EC50 ([1]; Neutrophil) [nM] | IC50 ([1]; Neutrophil, PMA stimulated human neutrophils) [nM] | Effect on phosphorylation of PKCδ (PKCδ) | EC50 [3] [nM] | EC50 [4] [nM] | IC50 [4] [nM] | IC50 ([3]; horseradish peroxidase, unit inferred, read-out: IC50, chemiluminescence generated by cell-free system) [nM] | SMILES | PKC activity (percentage of stimulated PMA control) (PKC; 1 μmol/L) [%] | PKC activity (percentage of stimulated PMA control) (PKC; 10 μmol/L) [%] | PKC activity (percentage of stimulated PMA control) (PKC; 100 μmol/L) [%] | Effect on intracellular ROS production [1] | Effect on phosphorylation of p40phox subunit [2] | Effect on spontaneous ATP liberation (cytotoxicity) (human neutrophils) | Effect on extracellular ROS production [4] | Effect on PKC activity (PKC; 1, 10, and 100 μmol/L, PMA stimulated) | Partition coefficient, compared to that of HHC [5] |
| --- | --- | --- | --- | --- | --- | --- | --- | --- | --- | --- | --- | --- | --- | --- | --- | --- |
| 5240 ± 570 | 5240 ± 570 | did not affect phosphorylation of PKCδ | 590 ± 10 | 1040 ± 200 | 1040 ± 200 |  | O=c1oc2cc(O)ccc2cc1-c1ccc(O)cc1 [HHC, 7-Hydroxy-3-(4′-hydroxyphenyl) coumarin] | 87.7 ± 4.2 | 74.8 ± 6.3 | 46.3 ± 1.8 | decreased significantly intracellular ROS production | failed to influence it | did not increase spontaneous ATP liberation | decreased significantly extracellular ROS production |  |  |
| > 100000 |  | did not affect phosphorylation of PKCδ | 2470 ± 40 | 1010 ± 130 | 1010 ± 130 | 2470 ± 40 | O=C1Oc2cc(O)ccc2CC1c1ccc(O)cc1 (stereo not shown) [HHDC, 7-Hydroxy-3-(4′-hydroxyphenyl)-3,4-dihydrocoumarin] |  |  |  | slightly effective only in the highest concentration tested | failed to influence it | did not increase spontaneous ATP liberation | decreased significantly extracellular ROS production | did not significantly influence PKC activity | lower values of the partition coefficient |

— article PMC3855971, “Study of Possible Mechanisms Involved in the Inhibitory Effects of Coumarin Derivatives on Neutrophil Activity” (Oxidative Medicine and Cellular Longevity, 2013)
